The record followed here is ChEMBL document CHEMBL1949562, “Triterpenes possessing an unprecedented skeleton isolated from hydrolyzate of total saponins from Gynostemma pentaphyllum” (Eur J Med Chem, 2012).

Test [1] relates to A549. The test can be described thus: Cytotoxicity against human A549 cells after 72 hrs by MTT assay. To be noted: A549, 72 h. It is filed as functional, cell-based.
The nature of test [2]: Cytotoxicity against human Hep3B cells after 72 hrs by MTT assay. The class given is functional, cell-based, Hep 3B2.
Test [3] is described as follows: Cytotoxicity against human U87 cells after 72 hrs by MTT assay. It is filed as functional, cell-based, U-87MG ATCC. The following applies: U-87 MG.

In the case of `CC(C)=C1CC([C@H]2CC[C@]3(C)[C@@H]2CC[C@@H]2C4=C(CC[C@]23C)C(C)(C)[C@@H]2CC[C@H]4O2)=CC1=O` [GYPENSAPOGENIN B], the half-inhibitory concentration (IC50) in test [1], in test [2] and in test [3] was more than 100 µM each time.
Consider `CC(C)=CCC[C@](C)(O)[C@H]1CC[C@]2(C)[C@@H]1[C@H](O)C[C@@H]1[C@@]3(C)CC[C@H](O)C(C)(C)[C@@H]3CC[C@]12C`, for which the IC50 (commonly the concentration that gives 50% inhibition) in test [2] came out at 14.7 µM; in test [3], 36.7 µM.
For the molecule `CC(C)=C1CC=C([C@H]2CC[C@]3(C)[C@@H]2CC[C@@H]2[C@@]4(C)CC[C@H](O)C(C)(C)[C@@H]4CC[C@]23C)C1=O` [GYPENSAPOGENIN C], the IC50 in test [1] is 0.11 µM; in test [2], more than 100 µM; in test [3] it was 0.58 µM.
On to `CC(C)=C1CC=C([C@H]2CC[C@]3(C)[C@@H]2CC[C@@H]2C4=C(CC[C@]23C)C(C)(C)[C@@H]2CC[C@H]4O2)C1=O` [GYPENSAPOGENIN A], for which the concentration for half-maximal inhibition (IC50) in test [1] was 71.2 µM; in test [2], 44.4 µM; in test [3] it was more than 100 µM.
Turning to `COc1cc([C@@H]2c3cc4c(cc3[C@@H](O[C@@H]3O[C@@H]5CO[C@@H](C)O[C@H]5[C@H](O)[C@H]3O)[C@H]3COC(=O)[C@H]23)OCO4)cc(OC)c1O` [ETOPOSIDE], the IC50 was 23.8 µM in test [1], 6.7 µM in test [2] and 12.4 µM in test [3].
Regarding `CC(C)=C[C@H]1C=C([C@H]2CC[C@]3(C)[C@@H]2CC[C@@H]2[C@@]4(C)CC[C@H](O[C@@H]5O[C@H](CO)[C@@H](O)[C@H](O)[C@H]5O)C(C)(C)[C@@H]4CC[C@]23C)C(=O)O1`, the half-inhibitory concentration (IC50) in test [1], in test [2] and in test [3] was more than 100 µM throughout.
For the molecule `CC(C)=C[C@H]1C=C([C@H]2CC[C@]3(C)[C@@H]2CC[C@@H]2[C@@]4(C)CC[C@H](O)C(C)(C)[C@@H]4CC[C@]23C)C(=O)O1` [GYPENSAPOGENIN D], the IC50 in test [1], in test [2] and in test [3] was more than 100 µM throughout.
